The values below come from article PMC7594083, “Preclinical Evaluation of the GRPR-Targeting Antagonist RM26 Conjugated to the Albumin-Binding Domain for GRPR-Targeting Therapy of Cancer” (Pharmaceutics, 2020).

Read-outs that look alike come from different tables or passages of the source.

Data set [1] can be described thus: Thermal melting by circular dichroism. The format is physicochemical. The settings on record: pH 7.4.
Data set [2] in a line: Circular dichroism, secondary structure/helicity. The data set is classed as physicochemical. How it is done: The secondary structures of ABD035, DOTA-ABD-Cl and DOTA-ABD-RM26 were determined by circular dichroism spectroscopy (Chirascan, Applied Photophysics, Leatherhead, UK). All CD spectra were obtained at 20 °C using a protein concentration of 0.2 mg/mL in 20 mM potassium phosphate buffer with 100 mM KCl pH 7.4. To estimate the percentage of helicity in each construct, the measured ellipticity (θobs) was first converted to the mean residue ellipticity (MRE) using the following formula MRE = θobs/10 × l × C × n, where l is the pathlength in cm, C is the peptide concentration in the molar, and n is the number of residues in each construct. From the mean residue ellipticity at 222 nm, MRE222, the fraction helix, FH, was calculated using the following formula, FH = (MRE222 − [θ]C)/([θ]H − [θ]C). [θ]H and [θ]C are given by [θ]H = 40,000 × (1 − (2.5/n) + 100 × T, and [θ]C = 640 − 45 × T. T is given in °C, here 20, and n is the number of residues in each construct (Scholtz 1991).
(In general: CD spectra are sensitive to the conformation of chiral molecules.)

In the next data set the test system is PC-3 xenografts. The data set is described as follows: Biodistribution in mice bearing PC-3 xenografts. The format is in vivo, mice (BALB/c nu/nu female). How it is done: (§1) Instant thin-layer chromatography (ITLC) results were analyzed using Cyclone® Plus (PerkinElmer). […] BALB/c nu/nu female mice were implanted subcutaneously with PC-3 cells in PBS (6.5 × 10^6 cells/mouse) on the hind leg. […] A group of four mice was used per data point. […] After euthanization, the organs of interest were collected and weighed, and the radioactivity content was measured on a gamma counter.

A short description of data set [3]: Biodistribution in mice bearing PC-3 xenografts. The format is in vivo, mice (BALB/c nu/nu female). The settings on record: mouse, in vivo, iv, 40 pmol, 40 pmol i.v., 1 h pi, 4 mice, SD; read-out: activity concentration in blood 1 h pi. How it is done: as §1
Another data set deals with GRPR (Homo sapiens, UniProt P30550). The experiment in a line: Competitive binding (IC50) assay on PC-3 cells. Set-up: host or cells: PC-3 prostate carcinoma cells. The settings on record: vs 1 nM [^111In]In-NOTA-PEG4-RM26, PC-3 cells, 0-10 µM, 4 °C, 5 h, n = 3, SD. How it is done: Prostate carcinoma cell line PC-3 (GRPR positive) was purchased from ATCC, Manassas, VA, USA. […] PC-3 cells (5 × 10^5 cells/well) were plated on 12-well plates one day before the competitive binding assays. […] On the day of the experiment, the cells were washed, and 1 nM of [^111In]In-NOTA-PEG4-RM26 was added to each well along with a series of concentrations ranging between 0-10 μM of the competing conjugate. The dishes were incubated at 4 °C for 5 h. The cells were then washed and treated with trypsin-EDTA until cell detachment. The cells were collected, and the radioactivity content was measured using a gamma counter.
Sequence of GRPR (P30550 whole entry): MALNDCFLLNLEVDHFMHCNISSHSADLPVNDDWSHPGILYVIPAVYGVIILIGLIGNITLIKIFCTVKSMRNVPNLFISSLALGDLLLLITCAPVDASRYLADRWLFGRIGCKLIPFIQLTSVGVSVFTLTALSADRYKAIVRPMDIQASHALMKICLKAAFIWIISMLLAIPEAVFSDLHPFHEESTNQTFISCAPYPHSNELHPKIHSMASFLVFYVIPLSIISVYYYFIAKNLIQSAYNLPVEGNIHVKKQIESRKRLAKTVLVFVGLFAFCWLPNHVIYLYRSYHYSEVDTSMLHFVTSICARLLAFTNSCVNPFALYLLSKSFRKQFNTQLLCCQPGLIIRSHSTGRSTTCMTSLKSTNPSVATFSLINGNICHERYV

The target of data set [4] is gastrin-releasing peptide receptor (human (endogenous in PC-3)) (UniProt P30550). The experiment in a line: radioligand binding.
Sequence of gastrin-releasing peptide receptor (human (endogenous in PC-3)) (P30550 whole entry): as above

Consider `CC[C@H](C)[C@H](NC(=O)[C@H](Cc1c[nH]cn1)NC(=O)[C@H](CC(C)C)NC(=O)[C@H](CCCCN)NC(=O)[C@H](CC(C)C)NC(=O)[C@H](C)NC(=O)[C@H](CCC(=O)O)NC(=O)[C@@H](NC(=O)CNC(=O)[C@H](CCC(=O)O)NC(=O)[C@@H](NC(=O)[C@@H](NC(=O)[C@H](CCCCN)NC(=O)[C@H](C)NC(=O)[C@H](CCCCN)NC(=O)[C@H](CC(N)=O)NC(=O)[C@@H](NC(=O)[C@H](CC(C)C)NC(=O)[C@H](CCCNC(=N)N)NC(=O)[C@H](CCCCN)NC(=O)[C@H](Cc1ccc(O)cc1)NC(=O)[C@H](Cc1ccccc1)NC(=O)[C@H](CC(=O)O)NC(=O)[C@H](CO)NC(=O)[C@@H](NC(=O)CNC(=O)[C@H](Cc1ccc(O)cc1)NC(=O)[C@H](CCCCNC(=O)CCl)NC(=O)[C@H](CC(=O)O)NC(=O)[C@H](CC(C)C)NC(=O)[C@H](CCC(=O)O)NC(=O)[C@H](CCCNC(=N)N)NC(=O)[C@H](CC(N)=O)NC(=O)[C@H](C)NC(=O)[C@H](CC(C)C)NC(=O)[C@@H](NC(=O)[C@H](CCCCN)NC(=O)[C@H](C)NC(=O)[C@H](CCC(=O)O)NC(=O)[C@H](C)NC(=O)[C@H](CC(C)C)NC(=O)CN1CCN(CC(=O)O)CCN(CC(=O)O)CCN(CC(=O)O)CC1)C(C)C)C(C)C)[C@@H](C)CC)[C@@H](C)O)C(C)C)C(C)C)C(=O)N[C@@H](CC(C)C)C(=O)N[C@@H](C)C(=O)N[C@@H](C)C(=O)N[C@@H](CC(C)C)C(=O)N1CCC[C@H]1C(N)=O` [DOTA-ABD-Cl], for which, in data set [1] (CD, 0.2 mg/mL in 20 mM potassium phosphate, 100 mM KCl, estimated (only roughly for DOTA-ABD-RM26)), the “melting temperature (Tm)” value was 50 °C. Further, the CD spectrum pattern result in data set [2] (20 °C, 0.2 mg/mL, 20 mM potassium phosphate with 100 mM KCl pH 7.4) was “characteristic alpha-helical pattern”. The helicity result in data set [2] (from MRE222, 20 °C, 0.2 mg/mL, 20 mM potassium phosphate with 100 mM KCl pH 7.4, helix-coil theory) is listed as “approximately 60%”. Moreover, in data set [2] (from MRE222, 20 °C, pH 7.4, out of 49 (ABD035), 46 (DOTA-ABD-Cl), 56 (ABD-RM26) residues), the “residues in helical conformation” value is given as 27 residues.
Turning to `CC[C@H](C)[C@H](NC(=O)[C@H](Cc1c[nH]cn1)NC(=O)[C@H](CC(C)C)NC(=O)[C@H](CCCCN)NC(=O)[C@H](CC(C)C)NC(=O)[C@H](C)NC(=O)[C@H](CCC(=O)O)NC(=O)[C@@H](NC(=O)CNC(=O)[C@H](CCC(=O)O)NC(=O)[C@@H](NC(=O)[C@@H](NC(=O)[C@H](CCCCN)NC(=O)[C@H](C)NC(=O)[C@H](CCCCN)NC(=O)[C@H](CC(N)=O)NC(=O)[C@@H](NC(=O)[C@H](CC(C)C)NC(=O)[C@H](CCCNC(=N)N)NC(=O)[C@H](CCCCN)NC(=O)[C@H](Cc1ccc(O)cc1)NC(=O)[C@H](Cc1ccccc1)NC(=O)[C@H](CC(=O)O)NC(=O)[C@H](CO)NC(=O)[C@@H](NC(=O)CNC(=O)[C@H](Cc1ccc(O)cc1)NC(=O)[C@H](CCCCNC(=O)CSCCC(=O)NCCOCCOCCOCCOCCC(=O)N[C@H](Cc1ccccc1)C(=O)N[C@@H](CCC(N)=O)C(=O)N[C@@H](Cc1c[nH]c2ccccc12)C(=O)N[C@@H](C)C(=O)N[C@H](C(=O)NCC(=O)N[C@@H](Cc1c[nH]cn1)C(=O)N[C@@H](CC(C)C)[C@@H](O)CC(=O)N[C@@H](CC(C)C)C(N)=O)C(C)C)NC(=O)[C@H](CC(=O)O)NC(=O)[C@H](CC(C)C)NC(=O)[C@H](CCC(=O)O)NC(=O)[C@H](CCCNC(=N)N)NC(=O)[C@H](CC(N)=O)NC(=O)[C@H](C)NC(=O)[C@H](CC(C)C)NC(=O)[C@@H](NC(=O)[C@H](CCCCN)NC(=O)[C@H](C)NC(=O)[C@H](CCC(=O)O)NC(=O)[C@H](C)NC(=O)[C@H](CC(C)C)NC(=O)CN1CCN(CC(=O)O)CCN(CC(=O)O)CCN(CC(=O)O)CC1)C(C)C)C(C)C)[C@@H](C)CC)[C@@H](C)O)C(C)C)C(C)C)C(=O)N[C@@H](CC(C)C)C(=O)N[C@@H](C)C(=O)N[C@@H](C)C(=O)N[C@@H](CC(C)C)C(=O)N1CCC[C@H]1C(N)=O` [DOTA-ABD-RM26], the “uptake in pancreas, intestines and xenografts, ABD-coupled vs parental RM26” value with PC-3 xenografts (1 h pi, discussion) was “activity uptake was equal both for ABD-coupled and parental RM26”. Besides, the “kidney uptake vs tumor uptake” value in the data set with PC-3 xenografts (all studied time points, 1-144 h pi) is “higher than that in tumors at all studied time points”. Also, the “uptake in liver and bone” value in the data set on PC-3 xenografts (up to 144 h pi) is “elevated up to 144 h pi”.
With `CC(C)C[C@H](NC(=O)C[C@H](O)[C@H](CC(C)C)NC(=O)[C@H](Cc1c[nH]cn1)NC(=O)CNC(=O)[C@@H](NC(=O)[C@H](C)NC(=O)[C@H](Cc1c[nH]c2ccccc12)NC(=O)[C@H](CCC(N)=O)NC(=O)[C@@H](Cc1ccccc1)NC(=O)COCCOCCNC(=O)CN1CCN(CC(=O)O)CCN(CC(=O)O)CCN(CC(=O)O)CC1)C(C)C)C(N)=O` [[^111In]In-DOTA-RM26, metal not drawn, reference compound], in data set [3], the tissue uptake at 1 h is 0.27 ± 0.04 %ID/g. Also, in the data set with PC-3 xenografts (1 h pi), the “pancreas and tumor uptake, [^111In]In-DOTA-ABD-RM26 vs [^111In]In-DOTA-RM26” value is on record as “on the same level for both radiolabelled conjugates”.
On to `CC[C@H](C)[C@H](NC(=O)[C@H](Cc1c[nH]cn1)NC(=O)[C@H](CC(C)C)NC(=O)[C@H](CCCCN)NC(=O)[C@H](CC(C)C)NC(=O)[C@H](C)NC(=O)[C@H](CCC(=O)O)NC(=O)[C@@H](NC(=O)CNC(=O)[C@H](CCC(=O)O)NC(=O)[C@@H](NC(=O)[C@@H](NC(=O)[C@H](CCCCN)NC(=O)[C@H](C)NC(=O)[C@H](CCCCN)NC(=O)[C@H](CC(N)=O)NC(=O)[C@@H](NC(=O)[C@H](CC(C)C)NC(=O)[C@H](CCCNC(=N)N)NC(=O)[C@H](CCCCN)NC(=O)[C@H](Cc1ccc(O)cc1)NC(=O)[C@H](Cc1ccccc1)NC(=O)[C@H](CC(=O)O)NC(=O)[C@H](CO)NC(=O)[C@@H](NC(=O)CNC(=O)[C@H](Cc1ccc(O)cc1)NC(=O)[C@H](CCCCNC(=O)CSCCC(=O)NCCOCCOCCOCCOCCC(=O)N[C@H](Cc1ccccc1)C(=O)N[C@@H](CCC(N)=O)C(=O)N[C@@H](Cc1c[nH]c2ccccc12)C(=O)N[C@@H](C)C(=O)N[C@H](C(=O)NCC(=O)N[C@@H](Cc1c[nH]cn1)C(=O)N[C@@H](CC(C)C)[C@@H](O)CC(=O)N[C@@H](CC(C)C)C(N)=O)C(C)C)NC(=O)[C@H](CC(=O)O)NC(=O)[C@H](CC(C)C)NC(=O)[C@H](CCC(=O)O)NC(=O)[C@H](CCCNC(=N)N)NC(=O)[C@H](CC(N)=O)NC(=O)[C@H](C)NC(=O)[C@H](CC(C)C)NC(=O)[C@@H](NC(=O)[C@H](CCCCN)NC(=O)[C@H](C)NC(=O)[C@H](CCC(=O)O)NC(=O)[C@H](C)NC(=O)[C@H](CC(C)C)NC(=O)CN1CCN(CC(=O)O)CCN(CC(=O)O)CCN(CC(=O)O)CC1)C(C)C)C(C)C)[C@@H](C)CC)[C@@H](C)O)C(C)C)C(C)C)C(=O)N[C@@H](CC(C)C)C(=O)N[C@@H](C)C(=O)N[C@@H](C)C(=O)N[C@@H](CC(C)C)C(=O)N1CCC[C@H]1C(N)=O` [^natIn-DOTA-ABD-RM26, metal not drawn], for which the IC50 worked out at 49 ± 5 nM at GRPR (10-fold molar excess of HSA, read-out: half-maximal inhibitory concentration (IC50) in the presence of HSA) and 30 ± 3 nM on GRPR (without HSA, read-out: half-maximal inhibitory concentration (IC50)).
With “AMALAEAKVLANRELDKYGVSDFYKRLINKAKTVEGVEALKLHILAALP [ABD035, recombinant control protein, reference compound]”, in data set [1], the “melting temperature (Tm)” value is 54 °C.
In turn, DOTA-ABD-RM26 (designed binder) came in with an IC50 in data set [4] of 30 nM.
In turn, “DOTA-ABD-RM26 bound to human serum albumin (from UniProt P02768 25-609) (complex)” returned an IC50 in data set [4] of 49 nM.
